Measured values reported in ChEMBL document CHEMBL1201862, “PubChem BioAssay data set” (2004).
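1) Cells in 96-well plates. 2) Compound, 48 h, 5 concentrations. 3) Linear interpolation between surrounding doses. 4) Unreached endpoint = highest concentration. GI50 is the concentration that inhibits growth by half.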 Calls of active or inactive are those of the source. Rule as the data show it: active = GI50 up to about 1.1 µM and inactive = higher.

Experiments:
Assay in all cases: NCI tumour cell line growth inhibition, 48 h
NCI-H23 = tested on: NCI-H23
SN12C = tested on: SN12C
A498 = tested on: A498
NCI-H460 = tested on: NCI-H460
SF-268 = tested on: SF-268
ACHN = tested on: ACHN
HOP-62 = tested on: HOP-62
SF-295 = tested on: SF-295
MDA-MB-231 = tested on: MDA-MB-231
HT-29 = tested on: HT-29
M14 = tested on: M14
COLO 205 = tested on: COLO 205
MOLT-4 = tested on: MOLT-4
Hs-578T = tested on: Hs-578T
MCF7 = tested on: MCF7
A549 = tested on: A549
BT-549 = tested on: BT-549
NCI-H522 = tested on: NCI-H522
OVCAR-3 = tested on: OVCAR-3

Measured: GI50

O=C(CC(C(=O)c1ccc(F)cc1)c1ccsc1)c1cccs1 (stereo not drawn)
inactive: NCI-H23 32.7 µM | SN12C > 100 µM | A498 > 100 µM | NCI-H460 69.7 µM | SF-268 > 100 µM | ACHN > 100 µM | HOP-62 > 100 µM | SF-295 67.6 µM | MDA-MB-231 > 100 µM | HT-29 59.2 µM | M14 > 100 µM | COLO 205 > 100 µM | MOLT-4 29.6 µM | Hs-578T > 100 µM | MCF7 82.2 µM | A549 74.8 µM

COc1ccc2oc(C(=O)N3CC(CCl)c4ccc([N+](=O)[O-])cc43)cc2c1 (stereo not drawn)
inactive: NCI-H23 73.8 µM | A498 18.9 µM | NCI-H460 31.3 µM | SF-268 13.3 µM | ACHN 40.6 µM | HOP-62 12.4 µM | SF-295 13 µM | MDA-MB-231 14.9 µM | M14 89.9 µM | COLO 205 74.6 µM | Hs-578T 9.12 µM | BT-549 42.3 µM

CC(C)(C)C1=C(Br)C(OC(=O)C(F)(F)F)(C(C)(C)C)OP1(=O)c1ccccc1 (stereo not drawn)
inactive: NCI-H23 33.7 µM | SN12C 39 µM | A498 27.8 µM | NCI-H460 35.5 µM | SF-268 61.4 µM | ACHN 32.7 µM | NCI-H522 42.2 µM | OVCAR-3 31.9 µM | HOP-62 25.9 µM | SF-295 35.3 µM | HT-29 37 µM | M14 36.1 µM | COLO 205 18.5 µM | Hs-578T 23.7 µM | MCF7 42.7 µM | A549 25.6 µM

O=C(CSc1nnc(-c2ccc(/N=C\c3ccc(Cl)cc3)cc2)o1)Nc1cccc(Cl)c1
inactive: NCI-H23 > 100 µM | SN12C > 100 µM | NCI-H460 > 100 µM | SF-268 > 100 µM | ACHN > 100 µM | NCI-H522 36.1 µM | HOP-62 > 100 µM | SF-295 > 100 µM | HT-29 > 100 µM | M14 > 100 µM | COLO 205 > 100 µM | MOLT-4 > 100 µM | A549 > 100 µM

Cc1cccc2c1C(=O)/C(=C/c1ccccc1C(=O)O)C2
inactive: NCI-H23 > 100 µM | SN12C > 100 µM | A498 > 100 µM | NCI-H460 > 100 µM | SF-268 > 100 µM | ACHN > 100 µM | NCI-H522 > 100 µM | OVCAR-3 > 100 µM | HOP-62 > 100 µM | SF-295 > 100 µM | HT-29 > 100 µM | M14 > 100 µM | COLO 205 > 100 µM | MOLT-4 > 100 µM | Hs-578T > 100 µM | MCF7 > 100 µM | BT-549 > 100 µM | A549 > 100 µM

CC1(C)CC[C@]2(C(=O)O)[C@H](O)C[C@]3(C)C(=CC[C@@H]4[C@@]5(C)CC[C@H](OC6OC(C(=O)O)C(O)C(O)C6O)C(C)(C)[C@@H]5CC[C@]43C)[C@@H]2C1 (stereo partly drawn)
inactive: NCI-H23 > 100 µM | SN12C 27.1 µM | A498 22.2 µM | NCI-H460 > 100 µM | SF-268 88.5 µM | ACHN 40.4 µM | NCI-H522 > 100 µM | OVCAR-3 > 100 µM | HOP-62 > 100 µM | SF-295 46.1 µM | HT-29 > 100 µM | M14 > 100 µM | COLO 205 > 100 µM | MOLT-4 > 100 µM | Hs-578T 28.2 µM | MCF7 > 100 µM | BT-549 18.5 µM | A549 > 100 µM

CN(Cc1cnc2nc(N)nc(N)c2n1)c1ccc(C(=O)NC(CCC(=O)NC(P(=O)(O)O)P(=O)(O)O)C(=O)O)cc1 (stereo not drawn)
inactive: NCI-H23 50.8 µM | SN12C 55.2 µM | NCI-H460 9.62 µM | SF-268 20.3 µM | ACHN 49.7 µM | NCI-H522 29 µM | OVCAR-3 > 100 µM | HOP-62 59.8 µM | SF-295 13.1 µM | MDA-MB-231 > 100 µM | HT-29 6.47 µM | M14 8.34 µM | COLO 205 > 100 µM | MOLT-4 52.8 µM | Hs-578T > 100 µM | MCF7 39.8 µM | A549 15.3 µM

[N-]=[N+]=C1CNC(=O)NC1=O
inactive: NCI-H23 > 100 µM | SN12C > 100 µM | NCI-H460 > 100 µM | SF-268 > 100 µM | ACHN 69.3 µM | NCI-H522 > 100 µM | OVCAR-3 > 100 µM | HOP-62 > 100 µM | SF-295 > 100 µM | MDA-MB-231 > 100 µM | HT-29 > 100 µM | M14 58.6 µM | COLO 205 > 100 µM | MOLT-4 42.5 µM | Hs-578T > 100 µM | MCF7 > 100 µM | A549 > 100 µM

C(=N\c1ccc(-c2nc3ccccc3[nH]2)cc1)/c1ccco1
inactive: NCI-H23 82.6 µM | SN12C > 100 µM | A498 > 100 µM | SF-268 > 100 µM | ACHN > 100 µM | NCI-H522 53.1 µM | OVCAR-3 91.4 µM | HOP-62 > 100 µM | HT-29 > 100 µM | M14 > 100 µM | COLO 205 43.9 µM | MOLT-4 29.3 µM | Hs-578T > 100 µM | MCF7 21.1 µM | BT-549 > 100 µM | A549 > 100 µM

Cc1ccc(/C=C2/NC(=S)SC2=O)cc1
inactive: NCI-H23 20.7 µM | SN12C 31 µM | NCI-H460 22.4 µM | ACHN 33 µM | OVCAR-3 43.7 µM | HOP-62 51.6 µM | SF-295 27.6 µM | MDA-MB-231 24.4 µM | HT-29 28.6 µM | M14 33 µM | COLO 205 35.7 µM | MOLT-4 33.8 µM | MCF7 39.6 µM | BT-549 22.6 µM | A549 36.7 µM

CO/N=C(\C(=O)Nc1cncs1)c1csc(NC(c2ccccc2)(c2ccccc2)c2ccccc2)n1
inactive: NCI-H23 > 10 µM | SN12C > 10 µM | A498 > 10 µM | NCI-H460 4.56 µM | SF-268 9.79 µM | ACHN > 10 µM | NCI-H522 > 10 µM | OVCAR-3 > 10 µM | HOP-62 > 10 µM | SF-295 7.21 µM | HT-29 4.63 µM | M14 > 10 µM | COLO 205 > 10 µM | MOLT-4 3.31 µM | Hs-578T > 10 µM | MCF7 6.08 µM | BT-549 > 10 µM | A549 3.84 µM

CCN(CC)c1ccc2cc(C(=O)Nc3ccccn3)c(=N)oc2c1
inactive: NCI-H23 37.8 µM | SN12C > 100 µM | A498 > 100 µM | NCI-H460 > 100 µM | SF-268 60.8 µM | ACHN 26.9 µM | OVCAR-3 > 100 µM | HOP-62 22.9 µM | MDA-MB-231 47.5 µM | HT-29 32.2 µM | M14 > 100 µM | COLO 205 > 100 µM | MOLT-4 > 100 µM | Hs-578T 32.1 µM | BT-549 > 100 µM | A549 > 100 µM

COc1cc2c(cc1C)NC(=O)/C2=C\c1cccnc1
inactive: NCI-H23 10.8 µM | SN12C 15.7 µM | A498 10.3 µM | NCI-H460 22.6 µM | SF-268 19.4 µM | ACHN 26.9 µM | NCI-H522 20.4 µM | OVCAR-3 13.7 µM | HOP-62 22.4 µM | SF-295 14.7 µM | HT-29 15.5 µM | M14 12.9 µM | COLO 205 16.5 µM | MOLT-4 7.98 µM | Hs-578T 24.7 µM | MCF7 11.7 µM | BT-549 21.9 µM | A549 21.3 µM

Cc1cn2cc(-c3cccs3)nc2s1
inactive: NCI-H23 > 75.5 µM | SN12C > 100 µM | A498 27.2 µM | NCI-H460 > 100 µM | SF-268 > 91.8 µM | ACHN > 88.5 µM | NCI-H522 > 100 µM | OVCAR-3 > 100 µM | HOP-62 > 100 µM | SF-295 > 100 µM | HT-29 > 41.2 µM | M14 > 78.3 µM | COLO 205 > 95.5 µM | MOLT-4 58.7 µM | Hs-578T > 100 µM | MCF7 > 53.5 µM | BT-549 > 100 µM | A549 > 72.1 µM

Cc1ccc(-c2cc(-c3ccccc3)nc(N)n2)c(O)c1
inactive: NCI-H23 > 100 µM | SN12C > 100 µM | A498 > 90.6 µM | NCI-H460 > 27 µM | SF-268 > 100 µM | ACHN > 100 µM | NCI-H522 5.4 µM | OVCAR-3 > 59.2 µM | HOP-62 27.6 µM | SF-295 39.4 µM | MDA-MB-231 > 100 µM | HT-29 > 100 µM | M14 > 100 µM | COLO 205 > 100 µM | MOLT-4 3.52 µM | MCF7 58.1 µM | BT-549 > 100 µM | A549 > 90.4 µM

C=C(C)C1CC/C(C)=C/CC[C@]2(C)O[C@H]2CC/C(COC(C)=O)=C\[C@@H]1O (stereo partly drawn)
inactive: NCI-H23 > 50 µM | SN12C > 50 µM | A498 > 50 µM | NCI-H460 25.1 µM | SF-268 > 50 µM | ACHN > 50 µM | NCI-H522 19.2 µM | OVCAR-3 > 50 µM | HOP-62 28.8 µM | SF-295 30.7 µM | MDA-MB-231 > 50 µM | HT-29 > 50 µM | COLO 205 17.9 µM | MOLT-4 16 µM | MCF7 > 50 µM | BT-549 > 50 µM | A549 > 50 µM
